Experimental data: patent US6221867A, “4,5-pyrazinoxindoles” (Hoffmann-La Roche Inc., priority 1999, dated 2001)

Target: rat SAPK (isoform β) (Rattus norvegicus, UniProt P49187)
Assay: SAPK FlashPlate Assay (inhibition of cJun phosphorylation)
Format: biochemical
Details: for SAPK % Inhibition: at test concentration 0.5 μM, GST-cJun substrate, 33P-ATP
Protocol: "IC50 " refers to the concentration of a particular 4,5-pyrazinoxindole required to inhibit 50% of cJun phosphorylation, which is a measure of inhibition of SAPK activity. IC50 can be measured, inter alia, using the assay described herein in Example 7, infra.
Human JNK is highly homologous to rat SAPK. To measure the inhibitory activity of test compounds, the compounds were tested in the rat SAPK assay. For the SAPK assay, purified GST-cJun (a chimeric protein containing cJun, a natural substrate of JNK) was coated on 96 well FlashPlates (New England Nuclear, Boston, Mass.). Purified rat SAPK (isoform β, Kyriakis et al. supra) was preincubated with preparations containing MEKK-1 and MKK4 for 30 minutes at 37° C. in assay buffer containing 25 mM HEPES, pH 7.5, 150 mM NaCl, 20 mM MgCl2, 2 mM DTT, 0.001% Tween 20, 1 μM ATP freshly added. In the preincubation step, MEKK-1 phosphorylates and activates MKK-4, which in turn phosphorylates and activates SAPK. The activated SAPK was then added to the cJun coated FlashPlates along with ^33 P-ATP (0.32 μCi per reaction) and test compounds. The plates were incubated for 30 minutes at 37° C., then washed with PBS, 0.01% Tween 20, and counted in the Topcount scintillation counter (Packard Instrument Co., Downers Grove, Ill.). Dilutions of compounds were tested in duplicate in each assay. The percent inhibition of cJun phosphorylation (a measure of inhibition of SAPK activity) was determined by the following formula: [formula]
where "test compound" refers to the average counts per minute of the test duplicates, "nonspecific" refers to the average counts per minute when no SAPK was added, and "total" refers to the average counts per minute when no compound was added.

Sequence of rat SAPK (isoform β) (P49187 whole entry, canonical isoform): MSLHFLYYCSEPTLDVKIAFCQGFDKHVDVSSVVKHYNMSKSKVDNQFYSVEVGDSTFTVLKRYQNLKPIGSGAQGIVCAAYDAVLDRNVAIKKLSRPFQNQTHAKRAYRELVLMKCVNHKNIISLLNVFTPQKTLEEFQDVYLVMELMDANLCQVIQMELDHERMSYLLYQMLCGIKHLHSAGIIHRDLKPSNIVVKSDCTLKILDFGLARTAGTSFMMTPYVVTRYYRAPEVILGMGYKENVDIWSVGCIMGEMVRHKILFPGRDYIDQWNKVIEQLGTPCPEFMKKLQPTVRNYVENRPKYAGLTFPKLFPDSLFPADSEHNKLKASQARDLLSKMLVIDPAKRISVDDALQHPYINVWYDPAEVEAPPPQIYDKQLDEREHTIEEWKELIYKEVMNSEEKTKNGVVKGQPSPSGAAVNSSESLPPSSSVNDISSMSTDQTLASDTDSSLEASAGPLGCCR

| SAPK % Inhibition [%] | Compound | inhibition at 0.1 µM (read-out: SAPK % Inhibition) [%] | further results |
| --- | --- | --- | --- |
| ≥ 50 | Mixture of (Z)-3-butyl-7,9-dihydro-9-[(3-methoxy-1H-pyrrol-2-yl)methylene]-2-methyl-8H-pyrrolo[3,2-f]quinoxalin-8-one and (Z)-2-butyl-7,9-dihydro-9-[(3-methoxy-1H-pyrrol-2-yl)methylene]-3-methyl-8H-pyrrolo[3,2-f]quinoxalin-8-one |  |  |
|  | COc1cc[nH]c1/C=C1\C(=O)Nc2ccc3nc4c(nc3c21)CCCC4 [E, (Z)-1,3,5,6,7,8-Hexahydro-3-[(3-methoxy-1H-pyrrol-2-yl)methylene]-2H-pyrrolo[3,2-a]phenazin-2-one] | ≥ 50 |  |
|  | COc1cc[nH]c1/C=C1\C(=O)Nc2ccc3nc(-c4ccco4)c(-c4ccco4)nc3c21 [D, (Z)-7,9-Dihydro-2,3-di-(2-furanyl)-9-[(3-methoxy-1H-pyrrol-2-yl)methylene]-8H-pyrrolo[3,2-f]quinoxalin-8-one] |  | inhibition at 0.5 µM (read-out: SAPK % Inhibition): ≥ 50% |
| ≥ 50 | (Z)-7,9-Dihydro-9-[(3-methoxy-1H-pyrrol-2-yl)methylene]-2-methyl-3-phenyl-8H-pyrrolo[3,2-f]quinoxalin-8-one and (Z)-7,9-dihydro-9-[(3-methoxy-1H-pyrrol-2-yl)methylene]-3-methyl-2-phenyl- 8H-pyrrolo[3,2-f]quinoxalin-8-one [C] |  |  |
|  | COc1cc[nH]c1/C=C1\C(=O)Nc2ccc3nc(C)c(C)nc3c21 [A, (Z)-7,9-Dihydro-2,3-dimethyl-9-[(3-methoxy-1H-pyrrol-2-yl)methylene]-8H-pyrrolo-[3,2-f]quinoxalin-8-one] | ≥ 50 |  |
